In US10710978B2, “STK4 inhibitors for treatment of hematologic malignancies” (Dana-Farber Cancer Institute, Inc., priority 2015, dated 2020):

How the values were obtained:
BAX = assay: Western blotting; format: cell-based; settings: H929 cells, 1 μM, 24 hours
Source text: (§1) MM.1S, KMS20 and H929 cells are counted, diluted and plated. Cells are then […] with DMSO or different concentration of a compound of the present application for 6 hrs, 24 hrs or 48 hrs. MM cells are then collected and centrifuged at RT and the pellets are re-suspended in lysis buffer. Cell lysates are subjected to sodium dodecyl sulfate-polyacrylamide gel electrophoresis SDS-PAGE, transferred to nitrocellulose membranes, and immunoblotted with different antibodies.
(§2) MM.1S, KMS20 and H929 cells were counted, diluted and plated in six-well plates to a final concentration of 500,000 cells/well. Cells were then […] with DMSO or different concentration of a compound of the present application for 6 hrs, 24 hrs or 48 hrs. MM cells were then collected and centrifuged for 5 min, 1300 rpm at RT. The pellets were re-suspended in lysis buffer Laemli 1× (Laemli 5×: SDS 10%, DTT 500 mM, Tris-HCl pH6.8 0.4M, BromoFenol Blue, Glycerol 50%). Cell lysates were subjected to sodium dodecyl sulfate-polyacrylamide gel electrophoresis SDS-PAGE, transferred to nitrocellulose membranes, and immunoblotted with different antibodies: YAP1 (#4912), p-YAP1 (S127) (#13008), LATS1 (#9153), p-LATS1 (Thr1079) (#8654), MOB1 (#3863), p-MOB1 (Thr12) (#8843), p-MST1/p-MST2 (Thr183/Thr180) (#3681), p21 (#2947), PARP (#9532), ERK, STAT, and GAPDH (#5174) from Cell Signaling, Beverly, Mass., United States; STK4 (ab57836) (from Abcam, Cambridge, Mass., United States); PUMA (sc-28226), BAX (sc-20067), from Santa Cruz, Dallas, Tex., United States; β-actin from Sigma-Aldrich (St. Louis, Mo., United States). All antibodies were diluted 1:500, except for β-actin antibody (1:50,000 dilution). In FIG. 8, H929 cells were treated with Compound I-9 or DMSO at 1 μM concentration for 24 hours. Lysates were then obtained and immunoblot was performed using antibodies against PARP, YAP1, PUMA, BAX. p21, and GAPDH.

PARP = assay: Western blotting; format: cell-based; settings: H929 cells, 1 μM, 24 hours
Source text: as §1, §2

PUMA = assay: Western blotting; format: cell-based; settings: H929 cells, 1 μM, 24 hours
Source text: as §1, §2

p21 = assay: Western blotting; format: cell-based; settings: H929 cells, 1 μM, 24 hours
Source text: as §1, §2

ITPK1 = ITPK1 (Homo sapiens (Human), UniProt Q13572); assay: KiNativ assay; format: binding; settings: H929 live cell, range class
Method: Biochemical IC50s of the compounds of the present disclosure against various kinases were measured in a KiNativ assay. Compounds were screened in duplicate at 10 μM in H929 live cell. IC50 was measured via Mass spectroscopy (MS).

Sequence of ITPK1 (Q13572 whole entry): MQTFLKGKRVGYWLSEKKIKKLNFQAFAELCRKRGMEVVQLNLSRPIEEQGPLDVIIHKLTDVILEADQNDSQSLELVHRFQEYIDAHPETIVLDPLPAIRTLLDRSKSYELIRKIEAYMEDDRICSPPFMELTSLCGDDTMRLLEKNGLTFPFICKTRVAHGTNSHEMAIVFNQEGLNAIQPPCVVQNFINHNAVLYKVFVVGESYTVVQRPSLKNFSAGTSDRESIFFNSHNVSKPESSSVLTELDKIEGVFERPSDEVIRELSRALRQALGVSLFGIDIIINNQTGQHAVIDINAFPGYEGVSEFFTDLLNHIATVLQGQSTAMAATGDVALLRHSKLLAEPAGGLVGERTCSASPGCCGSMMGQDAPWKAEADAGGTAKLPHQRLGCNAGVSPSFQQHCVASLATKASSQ

Compound	protein levels of BAX (BAX)	PARP cleavage (PARP)	protein levels of PUMA (PUMA)	protein levels of p21 (p21)	inhibition at 10 µM (ITPK1) [%]
Nc1ncc(-c2cccc([N+](=O)[O-])c2F)cc1-c1ccc2c(c1)CCNC2=O [Compound I-9, 6-(2-amino-5-(2-fluoro-3-nitrophenyl)pyridin-3-yl)-3,4-dihydroisoquinolin-1(2H)-one]	upregulation	induction of PARP cleavage	upregulation	upregulation	
Nc1ncc(-c2ccc(NS(=O)(=O)C3CC3)cc2OC2CCCCC2)cc1-c1ccc2c(c1)CCNC2=O [Compound I-65, N-(4-(6-amino-5-(1-oxo-1,2,3,4-tetrahydroisoquinolin-6-yl)pyridin-3-yl)-3-(cyclohexyloxy)phenyl) cyclopropanesulfonamide]					> 100
